Data reported in publication PMC5542762 (ChemistryOpen, 2017).
Counter-ions that a name gives are not always drawn.

Key:
EcTAL = molecular target: T1, EcTAL (Escherichia coli, UniProt P04968); experiment: HPLC of remaining L-threonine after FDAA derivatization; assay type: biochemical; details: L-threonine 100 mM, pyridoxal phosphate 10 μM; Na2CO3-NaHCO3 100 mM, pH 9.0, 30 °C
T1 sequence (P04968 1-514): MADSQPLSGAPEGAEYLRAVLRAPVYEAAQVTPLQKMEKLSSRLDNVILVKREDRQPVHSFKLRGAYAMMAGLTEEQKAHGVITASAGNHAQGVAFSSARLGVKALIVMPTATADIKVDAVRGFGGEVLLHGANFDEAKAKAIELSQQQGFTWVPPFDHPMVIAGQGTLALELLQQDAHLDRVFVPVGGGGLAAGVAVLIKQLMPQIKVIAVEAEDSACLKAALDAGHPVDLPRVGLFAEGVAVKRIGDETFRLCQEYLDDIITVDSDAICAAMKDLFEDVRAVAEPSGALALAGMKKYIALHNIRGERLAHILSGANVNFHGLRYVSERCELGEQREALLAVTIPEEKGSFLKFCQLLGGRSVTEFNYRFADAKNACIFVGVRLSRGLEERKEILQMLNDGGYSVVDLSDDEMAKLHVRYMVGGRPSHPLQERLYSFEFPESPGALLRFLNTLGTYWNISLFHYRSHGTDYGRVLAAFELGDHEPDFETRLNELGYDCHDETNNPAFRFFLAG

PFDH = molecular target: T2, PFDH (Pseudomonas sp. 101, UniProt P33160); experiment: NAD+ reduction at […] nm, 96-well plate; assay type: biochemical; details: sodium formate 20 mM, NAD+ 0.50 mM; Na2CO3-NaHCO3 100 mM, pH 9.0, room temperature
T2 sequence (P33160 2-401): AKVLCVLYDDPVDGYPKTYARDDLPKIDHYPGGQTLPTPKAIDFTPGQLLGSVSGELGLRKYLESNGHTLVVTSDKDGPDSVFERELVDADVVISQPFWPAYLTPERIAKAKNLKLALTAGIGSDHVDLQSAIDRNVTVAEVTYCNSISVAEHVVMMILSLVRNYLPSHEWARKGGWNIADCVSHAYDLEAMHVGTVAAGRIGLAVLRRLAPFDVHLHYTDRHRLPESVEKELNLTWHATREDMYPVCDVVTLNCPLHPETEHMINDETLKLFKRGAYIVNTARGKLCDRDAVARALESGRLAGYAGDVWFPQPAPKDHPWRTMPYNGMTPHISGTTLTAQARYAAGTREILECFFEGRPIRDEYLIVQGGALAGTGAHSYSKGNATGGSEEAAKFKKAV

## C[C@@H](O)[C@H](N)C(=O)O [L-threonine]
EcTAL
  HPLC of remaining L-threonine after FDAA derivatization: The activity of EcTAL toward L‐threonine was determined by measuring the decrease of threonine

## O=CO [sodium formate]
PFDH
  NAD+ reduction at 340 nm, 96-well plate: the activity of the FDH toward the oxidation of formate were determined
